Converted amounts (≈) assume the structure as drawn. Like-named read-outs stand apart in the source and are kept apart here.
What was measured:
[1] = test system: M. smegmatis ATCC 607; assay: microbe, parasite or virus in culture; settings: Mycolicibacterium smegmatis, ATCC607, 72 h
Description: (§1) were grown in Mueller Hinton broth (Oxoid) in triplicate. All incubations were at 37°C. Dilutions were carried out in triplicate. 100 µl of autoclaved Mueller Hinton broth was added to wells 2-12 in a 96-well plate. 200 µl of the peptide was added to well one at a concentration of 256 µg/mL. 100µl of peptide in well one was taken up and pipetted into well two. The mixture was then mixed via pipetting before 100µl was taken up and pipetted into well three. This process was repeated up to well 11. Once […]
(§2) peptide present. Thus, the concentrations (in µg/mL) were: 256, 128, 64, 32, 16, 8, 4, 2, 1, 0.5, 0.25 and no peptide present. Each well was then inoculated with 100µl of bacteria that had been diluted to an […]
(§3) This was repeated three times. The 96-well plates were then incubated at 37°C for 24 hours. The MIC was determined to be the lowest concentration at which there was no growth visible. […]
(§4) was repeated at an altered initial concentration of 64 µg/ml. Therefore, the new concentrations for MIC […]
Middlebrook 7H9 broth (SIGMA) supplemented to 5% Middlebrook ADC (SIGMA) growth

[2] = test system: VRE 1: VRE ATCC 700802; assay: organism not typed
Description: (§5) VIII. MIC testing (extended panel)
(§6) Bacterial cultures were grown overnight i n Mueller-Hinton Agar (MHA) plates and adjusted to a final concentration of 10 5 – 106 CFU/ml. 100 µl of inoculum in Meuller -Hinton broth (MHB) was mixed with equal volume of peptides (dissolved in MHB) at 2x their concentration in a 96 well plate. In parallel experiments, MIC values were determined in the media containing polysorbate 80 (0 .002%, v/v) to […]
(§7) prevent non-specific adsorption of the peptides to plastic surfaces. The final peptides concentrations […]
(§8) Positive and negative controls contained 200 µl of inoculum without any peptide dissolved in broth, respectively. The 96 well plates were then incubated at 37 °C for 24 h. […]
(§9) 80. Strain information: MRSA 1: MRSA ATCC 700699, MRSA 2: MRSA DR 42412 (sputum), MRSA
(§10) 3: MRSA DM21455 (eye). […] Staphylococcus aureus ATCC

[3] = test system: VRE 2: VRE ATCC 29212; assay: organism not typed
Description: as §5, §6, §7, §8, §9, §10

[4] = test system: MRSA ATCC 33591; assay: microbe, parasite or virus in culture; settings: Staphylococcus aureus, 24 h
Description: as §1, §2, §3, §4, §5, §6

[5] = test system: MRSA 2: MRSA DR 42412 (sputum); assay: microbe, parasite or virus in culture; settings: 24 h; for MIC: Staphylococcus aureus, MRSA
Description: as §5, §6, §7, §8, §9, §10

[6] = test system: MRSA DM21455; assay: Time-kill kinetics; type: cell-based, Methicillin-resistant Staphylococcus aureus; settings: without polysorbate 80
Description: IX. Time-dependent killing of bacteria by teixobactin analogues 12 and 13 Time-kill kinetics against MRSA DM21455 strains (clinical isolates from patients) was carried out in MHB. Cultures were grown overnight in MHA plates and adjusted to a final inoculum of 10^5 – 10^6 CFU/ml in MHB (containing 0.002% v/v, polysorbate 80) with teixobactin analogues 12 and 13 maintained at a final concentration of 0.5 µg/ml. For vancomycin, the concentration was varied from 0.5 – 16 µg/ml without polysorbate 80. The tubes were then incubated at 37 °C. 100 µl of cell suspension was withdrawn at various time points (0, 2, 4, 8, 24 h), serially diluted (101-105 fold dilutions) and plated onto a MHA plates and incubated for 24 h at 37 °C.
Colonies were then enumerated […]. Colony counting too numerous to count (>300 colonies) was taken as 1010 CFU. Average values from two independent experiments are reported. […]
(also on this page, place not known: polyso rbate vancomycin , concentr ation 80 . wer e µ l (10 1-105 10 10 previously n - TL C three S76: (Ala10-teixobactin) literature.7 Lipid II Lipid II: Compound 8 = 1:1 Lipid II: Compound 16 = 1:1 Lipid II: Compound 8 = 1:2 Lipid II: Compound 16 = 1:2 Lipid II: Compound 8 = 1:4)

[7] = test system: Staphylococcus aureus ATCC 29213; assay: microbe, parasite or virus in culture; settings: for MIC: Staphylococcus aureus
Description: as §5, §6, §7
(§11) Positive and negative controls contained 200 µl of inoculum without any peptide dissolved in broth, respectively. The 96 well plates were then incubated at 37 °C for 24 h.
(§12) All the experiments were performed in two independent duplicates and the MIC was determined as the […]
(§13) Minimum bactericidal concentration
(§14) The lowest concentration in which no visible colonies could be detected was taken as the MBC.
as §9, §10

[8] = test system: MRSA 3: MRSA DM21455 (eye); assay: microbe, parasite or virus in culture; settings: 24 h; for MIC: Staphylococcus aureus, MRSA
Description: as §5, §6, §7, §11, §12, §13, §14, §9, §10

[9] = test system: MRSA 1: MRSA ATCC 700699; assay: microbe, parasite or virus in culture; settings: 24 h; for MIC: Staphylococcus aureus
Description: as §5, §6, §7, §11, §12, §13, §14, §9, §10

[10] = Enterococcus, 24 h, read-out: MIC (with polysorbate 80)
[11] = Enterococcus, 24 h, read-out: MIC (without polysorbate 80)
[12] = read-out: MIC (with polysorbate 80)
[13] = read-out: MIC (without polysorbate 80)

For CN[C@H](CC(C)C)C(=O)N[C@H]1C(=O)N[C@@H](CC(N)=O)C(=O)N[C@H]2C(=O)N[C@H]3C(=O)N[C@H](C(=O)N[C@H](C(=O)O)c4cc(O)cc(O)c4-c4cc3ccc4O)[C@H](O)c3ccc(c(Cl)c3)Oc3cc2cc(c3O[C@@H]2O[C@H](CO)[C@@H](O)[C@H](O)[C@H]2O[C@H]2C[C@](C)(N)[C@H](O)[C@H](C)O2)Oc2ccc(cc2Cl)[C@H]1O [Compound 18, Vancomycin, reference compound], the MIC [1] was > 64 µg/mL, the MIC [2] was > 4 µg/mL and the MIC [2, 10] was > 4 µg/mL. For the same molecule, the MIC [2, 11] was > 4 µg/mL, the MIC [3] was > 4 µg/mL and the MIC [3, 10] was > 4 µg/mL. The MIC [3, 11] was > 4 µg/mL, the MIC [4] was 2 µg/mL (≈ 1.38 µM) and the MIC [5] was 2 µg/mL (≈ 1.38 µM). For the same molecule, the MIC [5, 12] was 1 µg/mL (≈ 0.69 µM), the MIC [5, 13] was 2 µg/mL (≈ 1.38 µM) and the time-kill outcome ([6]; 0.5 μg mL^–1, 37 °C) was “substantial growth was observed”. The “concentration needed for similar effects as teixobactin analogues 12 & 13 in time-kill” value ([6]; MRSA 21455) was 8 μg mL^–1, the MIC ([7]; ATCC29213, 24 h, read-out: MIC (with polysorbate 80)) was 2 µg/mL (≈ 1.38 µM) and the MIC ([7]; ATCC29213, 24 h, read-out: MIC (without polysorbate 80)) was 4 µg/mL (≈ 2.76 µM). It also gave an MIC ([7]; ATCC29213 / MSSA, 24 h) of 4 µg/mL (≈ 2.76 µM), an MIC [8] of 2 µg/mL (≈ 1.38 µM) and an MIC [8, 12] of 1 µg/mL (≈ 0.69 µM). For the same molecule, the MIC [8, 13] was 2 µg/mL (≈ 1.38 µM), the MIC [9] was 2 µg/mL (≈ 1.38 µM) and the MIC ([9]; ATCC700699|MRSA, read-out: MIC (with polysorbate 80)) was 1 µg/mL (≈ 0.69 µM). It also gave an MIC ([9]; ATCC700699|MRSA, read-out: MIC (without polysorbate 80)) of 2 µg/mL (≈ 1.38 µM).

For CCCCCCCCCC(=O)N[C@@H](Cc1c[nH]c2ccccc12)C(=O)N[C@H](CC(N)=O)C(=O)N[C@@H](CC(=O)O)C(=O)N[C@@H]1C(=O)NCC(=O)N[C@@H](CCCN)C(=O)N[C@@H](CC(=O)O)C(=O)N[C@H](C)C(=O)N[C@@H](CC(=O)O)C(=O)NCC(=O)N[C@H](CO)C(=O)N[C@@H]([C@H](C)CC(=O)O)C(=O)N[C@@H](CC(=O)c2ccccc2N)C(=O)O[C@@H]1C [Daptomycin, reference compound], the “MIC (with polysorbate 80)” value ([2]; VRE 1, MHB containing polysorbate 80 (0.002%, v/v), 37 °C, 24 h) was 0.5 µg/mL (≈ 0.309 µM), the “MIC (with polysorbate 80)” value ([3]; VRE 2, MHB containing polysorbate 80 (0.002%, v/v), 37 °C, 24 h) was 0.5 µg/mL (≈ 0.309 µM) and the “MIC (with polysorbate 80)” value ([5]; MRSA 2, MHB containing polysorbate 80 (0.002%, v/v), 37 °C) was 0.5 µg/mL (≈ 0.309 µM). The “MIC (with polysorbate 80)” value ([7]; S. aureus ATCC 29213, MHB containing polysorbate 80 (0.002%, v/v), 37 °C, 24 h) was 0.25 µg/mL (≈ 0.154 µM), the “MIC (with polysorbate 80)” value ([8]; MRSA 3, MHB containing polysorbate 80 (0.002%, v/v), 37 °C) was 0.5 µg/mL (≈ 0.309 µM) and the “MIC (with polysorbate 80)” value ([9]; MRSA 1, MHB containing polysorbate 80 (0.002%, v/v), 37 °C, two independent duplicates) was 0.5 µg/mL (≈ 0.309 µM).

Source: publication PMC5855875, “Teixobactin analogues reveal enduracididine to be non-essential for highly potent antibacterial activity and lipid II binding” (Chemical Science, 2017)
